{"source": "patent US20250108119A1", "about": "“NOVEL STEROID PAYLOADS, STEROID LINKERS, ADCs CONTAINING AND USE THEREOF” (IMMUNEXT, INC., priority 2021, published 2025)", "tested_on": "LPS stimulated human PBMCs", "test": "LPS stimulated human PBMC, IL-1β and IL-6 ELISA", "type": "cell-based", "conditions": "for inhibition of IL-1β production / inhibition of IL-1β and IL-6 production: 24 hr; for inhibition of IL-1β and IL-6 production: Experiment 1: free payload 1000-1 nM, 1 ng/ml LPS", "protocol": "The potency of novel steroids was assessed in a model of LPS stimulated human peripheral blood mononuclear cells (PBMCS). Stimulated PBMCs in this assay produce multiple pro-inflammatory cytokines1.\nIn all the following experiments, human PBMC, isolated from 1-2 healthy donors per study, were stimulated with LPS to induce cytokine production.\nLPS was added either immediately after addition of free payload, or in the case of conjugates, four hours after addition of the conjugate.\nCells were plated in flat bottom 96 well plates at a final concentration of 150,000 cells/well, with technical duplicates for each condition.\nTest agents were serially diluted in the assay media and added to a final concentration of 1,000 nM-1 nM or 0.2 nM depending on the assay or as a no treatment control.\nLPS stimulation was added to a final concentration of 1 ng/ml.\nHuman IL-1β and IL-6 ELISA kits were used on supernatants according to vendor protocols. All graphs were prepared with GraphPad (Prism).", "key": {"[1]": {"conditions": "Experiment 6: free payload 1000-0.16 nM"}}}
{"smiles": "C[C@]12C=CC(=O)C=C1CC[C@@H]1[C@@H]2[C@@H](O)C[C@@]2(C)[C@H]1C[C@H]1O[C@@H](c3ccc(CC4CC5(C4)CC(NC(=O)[C@H](CCC(=O)O)NC(=O)CNC(=O)CBr)C5)cc3)O[C@]12C(=O)COP(=O)(O)O", "note": "(stereo partly drawn) [INX A7, (S)-4-(2-(2-bromoacetamido)acetamido)-5-((6-(4-((6aR,6bS,7S,8aS,8bS,10R,11aR,12aS,12bS)-7-hydroxy-6a,8a-dimethyl-4-oxo-8b-(2-(phosphonooxy)acetyl)-2,4,6a,6b,7,8,8a,8b,11a,12,12a,12b-dodecahydro-1H-naphtho[2′,1′:4,5]indeno[1,2-d][1,3]dioxol-10-yl)benzyl)spiro[3.3]heptan-2-yl)amino)-5-oxopentanoic acid]", "values": [{"measurement": "potency of conjugated linker payloads over INX J (conclusions)", "result": "enhanced potency"}]}
{"smiles": "C[C@]12C=CC(=O)C=C1CC[C@@H]1[C@@H]2[C@@H](O)C[C@@]2(C)[C@H]1C[C@H]1O[C@@H](c3ccc(CC4CC45CCC(NC(=O)[C@H](CCC(=O)O)NC(=O)CNC(=O)CBr)CC5)cc3)O[C@]12C(=O)CO", "note": "(stereo partly drawn) [INX A9, (4S)-4-(2-(2-bromoacetamido)acetamido)-5-((1-(4-((6aR,6bS,7S,8aS,8bS,10R,11aR,12aS,12bS)-7-hydroxy-8b-(2-hydroxyacetyl)-6a,8a-dimethyl-4-oxo-2,4,6a,6b,7,8,8a,8b,11a,12,12a,12b-dodecahydro-1H-naphtho[2′,1′:4,5]indeno[1,2-d][1,3]dioxol-10-yl)benzyl)spiro[2.5]octan-6-yl)amino)-5-oxopentanoic acid]", "values": [{"measurement": "potency of conjugated linker payloads over INX J (conclusions)", "result": "enhanced potency"}]}
{"smiles": "C[C@]12C=CC(=O)C=C1[C@@H](F)C[C@H]1[C@@H]3C[C@H]4O[C@@H](c5ccc(CC6CC7(C6)CC(NC(=O)[C@H](CCC(=O)O)NC(=O)CNC(=O)CBr)C7)cc5)O[C@@]4(C(=O)COP(=O)(O)O)[C@@]3(C)C[C@H](O)[C@@]12F", "note": "(stereo partly drawn) [INX A12, (S)-4-(2-(2-bromoacetamido)acetamido)-5-((6-(4-((2S,6aS,6bR,7S,8aS,8bS,10R,11aR,12aS,12bS)-2,6b-difluoro-7-hydroxy-6a,8a-dimethyl-4-oxo-8b-(2-(phosphonooxy)acetyl)-2,4,6a,6b,7,8,8a,8b,11a,12,12a,12b-dodecahydro-1H-naphtho[2′,1′:4,5]indeno[1,2-d][1,3]dioxol-10-yl)benzyl)spiro[3.3]heptan-2-yl)amino)-5-oxopentanoic acid]", "values": [{"measurement": "potency of conjugated linker payloads over INX J (conclusions)", "result": "enhanced potency"}]}
{"smiles": "C[C@]12C=CC(=O)C=C1CC[C@H]1[C@@H]3C[C@H]4O[C@@H](c5ccc(CC67CC(N)(C6)C7)cc5)O[C@@]4(C(=O)CO)[C@@]3(C)C[C@H](O)[C@@]12F", "note": "[INX-SM-13, (6aS,6bR,7S,8aS,8bS,10R,11aR,12aS,12bS)-10-(4-((3-aminobicyclo[1.1.1]pentan-1-yl)methyl)phenyl)-6b-fluoro-7-hydroxy-8b-(2-hydroxyacetyl)-6a,8a-dimethyl-1,2,6a,6b,7,8,8a,8b,11a,12,12a,12b-dodecahydro-4H-naphtho[2′,1′:4,5]indeno[1,2-d][1,3]dioxol-4-one]", "values": [{"measurement": "inhibition of IL-1β production", "setting": "[1]", "result": "did not lead to increased potency over the non-fluorinated payload"}]}
{"smiles": "C[C@]12C=CC(=O)C=C1[C@@H](F)C[C@H]1[C@@H]3C[C@H]4O[C@@H](c5ccc(CC67CC(N)(C6)C7)cc5)O[C@@]4(C(=O)CO)[C@@]3(C)C[C@H](O)[C@@]12F", "note": "[INX-SM-24, (2S,6aS,6bR,7S,8aS,8bS,10R,11aR,12aS,12bS)-10-(4-((3-aminobicyclo[1.1.1]pentan-1-yl)methyl)phenyl)-2,6b-difluoro-7-hydroxy-8b-(2-hydroxyacetyl)-6a,8a-dimethyl-1,2,6a,6b,7,8,8a,8b,11a,12,12a,12b-dodecahydro-4H-naphtho[2′,1′:4,5]indeno[1,2-d][1,3]dioxol-4-one]", "values": [{"measurement": "inhibition of IL-1β production", "setting": "[1]", "result": "increased potency over the non-fluorinated INX-SM-3"}]}
{"smiles": "C[C@]12C=CC(=O)C=C1CC[C@@H]1[C@@H]2[C@@H](O)C[C@@]2(C)[C@H]1C[C@H]1O[C@H](c3ccc(CC45CC(N)(C4)C5)cc3)O[C@]12C(=O)CO", "note": "[INX-SM-53, (6aR,6bS,7S,8aS,8bS,10S,11aR,12aS,12bS)-10-(4-((3-aminobicyclo[1.1.1]pentan-1-yl)methyl)phenyl)-7-hydroxy-8b-(2-hydroxyacetyl)-6a,8a-dimethyl-1,2,6a,6b,7,8,8a,8b, 11a,12,12a,12b-dodecahydro-4H-naphtho[2′,1′:4,5]indeno[1,2-d][1,3]dioxol-4-one]", "values": [{"measurement": "inhibition of IL-1β and IL-6 production", "setting": "n=1 donor", "result": "did not show inhibition"}]}
{"smiles": "C[C@]12C=CC(=O)C=C1CC[C@@H]1[C@@H]2[C@@H](O)C[C@@]2(C)[C@H]1C[C@H]1O[C@H](C34CC(Cc5cccc(N)c5)(C3)C4)O[C@]12C(=O)CO", "note": "[INX-SM-54, (6aR,6bS,7S,8aS,8bS,10S,11aR,12aS,12bS)-10-(3-(3-aminobenzyl)bicyclo[1.1.1]pentan-1-yl)-7-hydroxy-8b-(2-hydroxyacetyl)-6a,8a-dimethyl-1,2,6a,6b,7,8,8a,8b,11a,12,12a,12b-dodecahydro-4H-naphtho[2′,1′:4,5]indeno[1,2-d][1,3]dioxol-4-one]", "values": [{"measurement": "inhibition of IL-1β and IL-6 production", "setting": "n=1 donor", "result": "did not show inhibition"}]}
{"smiles": "C[C@]12C=CC(=O)C=C1CC[C@@H]1[C@@H]2[C@@H](O)C[C@@]2(C)[C@H]1C[C@H]1O[C@H](c3cnc(Cc4cccc(N)c4)s3)O[C@]12C(=O)CO", "note": "[INX-SM-56, (6aR,6bS,7S,8aS,8bS,10S,11aR,12aS,12bS)-10-(2-(3-aminobenzyl)thiazol-5-yl)-7-hydroxy-8b-(2-hydroxyacetyl)-6a,8a-dimethyl-1,2,6a,6b,7,8,8a,8b, 11a,12,12a,12b-dodecahydro-4H-naphtho[2′,1′:4,5]indeno[1,2-d][1,3]dioxol-4-one]", "values": [{"measurement": "inhibition of IL-1β production", "setting": "Experiment 2: free payload 1000-1 nM, n=1 donor", "result": "did not show inhibition"}]}
{"smiles": "C[C@]12C=CC(=O)C=C1[C@@H](F)C[C@H]1[C@@H]3C[C@H]4O[C@H](c5ccc(CC67CC(N)(C6)C7)cc5)O[C@@]4(C(=O)CO)[C@@]3(C)C[C@H](O)[C@@]12F", "note": "[INX-SM-74, (2S,6aS,6bR,7S,8aS,8bS,10S,11aR,12aS,12bS)-10-(4-((3-aminobicyclo[1.1.1]pentan-1-yl)methyl)phenyl)-2,6b-difluoro-7-hydroxy-8b-(2-hydroxyacetyl)-6a,8a-dimethyl-1,2,6a,6b,7,8,8a,8b,11a,12,12a,12b-dodecahydro-4H-naphtho[2′,1′:4,5]indeno[1,2-d][1,3]dioxol-4-one]", "values": [{"measurement": "potency of free payloads (conclusions)", "result": "moderate potency albeit much weaker than the R stereoisomer with the same halogenation"}]}
